Key:
[1] = system: 3MR and INK-ATTAC mice exposed to cigarette smoke; experiment: Cigarette smoke induced COPD model, pulse oximetry; assay type: in vivo, mouse; details: after two months of cigarette smoke exposure, compared with untreated controls; FIG. 8
Procedure: As a model for chronic obstructive pulmonary disease (COPD), mice were exposed to cigarette smoke.
The effect of a senolytic agent on the mice exposed to smoke is assessed by senescent cell clearance, lung function, and histopathology.
The mice used in this study include the 3MR strain, described in US 2017/0027139 A1 and in Demaria et al., Dev Cell. 2014 Dec. 22; 31(6): 722-733. The 3MR mouse has a transgene encoding thymidine kinase that converts the prodrug ganciclovir (GCV) to a compound that is lethal to cells. The enzyme in the transgene is placed under control of the p16 promoter, which causes it to be specifically expressed in senescent cells. Treatment of the mice with GCV eliminates senescent cells.
Other mice used in this study include the INK-ATTAC strain, described in US 2015/0296755 A1 and in Baker et al., Nature 2011 Nov. 2; 479(7372):232-236. The INK-ATTAC mouse has a transgene encoding switchable caspase 8 under control of the p16 promoter. The caspase 8 can be activated by treating the mice with the switch compound AP20187, whereupon the caspase 8 directly induces apoptosis in senescent cells, eliminating them from the mouse.
To conduct the experiment, six-week-old 3MR (n=35) or INK-ATTAC (n=35) mice were chronically exposed to cigarette smoke generated from a Teague TE-10 system, an automatically-controlled cigarette smoking machine that produces a combination of side-stream and mainstream cigarette smoke in a chamber, which is transported to a collecting and mixing chamber where varying amounts of air is mixed with the smoke mixture. The COPD protocol was adapted from the COPD core facility at Johns Hopkins University (Rangasamy et al., 2004, J. Clin. Invest. 114:1248-1259; Yao et al., 2012, J. Clin. Invest. 122:2032-2045).
Mice received a total of 6 hours of cigarette smoke exposure per day, 5 days a week for 6 months. Each lighted cigarette (3R4F research cigarettes containing 10.9 mg of total particulate matter (TPM), 9.4 mg of tar, and 0.726 mg of nicotine, and 11.9 mg carbon monoxide per cigarette [University of Kentucky, Lexington, Ky.]) was puffed for 2 seconds and once every minute for a total of 8 puffs, with the flow rate of 1.05 L/min, to provide a standard puff of 35 cm3. […] The smoke chamber atmosphere was monitored for total suspended particulates (80-120 mg/m3) and carbon monoxide (350 ppm). […]
After two months of cigarette smoke (CS) exposure, lung function was assessed by monitoring oxygen saturation using the MouseSTAT PhysioSuite™ pulse oximeter (Kent Scientific). […] Mice were monitored for 30 seconds and the average peripheral capillary oxygen saturation (SpO2) measurement over this duration was calculated.

[2] = system: cancer cells in human patients; details: cited from earlier work
[3] = system: primary cells from patients with B-cell malignancies; details: in vitro studies; cited from earlier work
[4] = system: C57BL/6J mice with osteoarthritis induced by ACL surgery; experiment: Osteoarthritis model: anterior cruciate ligament surgery, intra-articular treatment; assay type: in vivo, mouse
Procedure: The model was implemented as follows. C57BL/6J mice underwent surgery to cut the anterior cruciate ligament of one rear limb to induce osteoarthritis in the joint of that limb. During week 3 and week 4 post-surgery, the mice were treated with 5.8 μg of Nutlin-3A (n=7) per operated knee by intra-articular injection, q.o.d. for 2 weeks. At the end of 4 weeks post-surgery, joints of the mice were monitored for presence of senescent cells, assessed for function, monitored for markers of inflammation, and underwent histological assessment.
Two control groups of mice were included in the studies performed: one group comprising C57BL/6J or 3MR mice that had undergone a sham surgery (n=3) (i.e., surgical procedures followed except for cutting the ACL) and intra-articular injections of vehicle parallel to the GCV (ganciclovir) treated group; and one group comprising C57BL/6J or 3MR mice that had undergone an ACL surgery and received intra-articular injections of vehicle (n=5) parallel to the GCV-treated group. RNA from the operated joints of mice from the Nutlin-3A treated mice was analyzed for expression of SASP factors (mmp3, IL-6) and senescence markers (p16). qRT-PCR was performed to detect mRNA levels.
Function of the limbs was assessed 4 weeks post-surgery by a weight bearing test to determine which leg the mice favored. The mice were allowed to acclimate to the chamber on at least three occasions prior to taking measurements. Mice were maneuvered inside the chamber to stand with one hind paw on each scale. The weight that was placed on each hind limb was measured over a three second period. At least three separate measurements were made for each animal at each time point. The results were expressed as the percentage of the weight placed on the operated limb versus the contralateral unoperated limb.

[5] = system: LDLR-/- mice fed a high fat diet; experiment: Atherosclerosis model, LDLR-/- mice on a high fat diet, systemic treatment; assay type: in vivo, mouse
Procedure: This example illustrates the testing of an MDM2 inhibitor in a mouse model for treatment of atherosclerosis. The test compounds are administered systemically rather than locally. The model is done in an LDLR−/− strain of mice, which are deficient in the receptor for low-density lipoprotein. The experiments described here can be adapted mutatis mutandis to test and develop other types of inhibitors for use in clinical therapy.
Two groups of LDLR−/− mice (10 weeks) are fed a high fat diet (HFD) (Harlan Teklad TD.88137) having 42% calories from fat, beginning at Week 0 and throughout the study. Two groups of LDLR−/− mice (10 weeks) are fed normal chow (−HFD). From weeks 0-2, one group of HFD mice and −HFD mice are treated with Nutlin-3A (25 mg/kg, intraperitoneally). One treatment cycle is 14 days treatment, 14 days off. Vehicle is administered to one group of HFD mice and one group of −HFD mice. At week 4 (timepoint 1), one group of mice are sacrificed and to assess presence of senescent cells in the plaques. For the some of the remaining mice, Nutlin-3A and vehicle administration is repeated from weeks 4-6. At week 8 (timepoint 2), the mice are sacrificed and to assess presence of senescent cells in the plaques. The remaining mice are treated with Nutlin-3A or vehicle from weeks 8-10. At week 12 (timepoint 3), the mice are sacrificed and to assess the level of plaque and the number of senescent cells in the plaques.
Plasma lipid levels were measured in LDLR−/− mice fed a HFD and treated with Nutlin-3A or vehicle at timepoint 1 as compared with mice fed a −HFD (n=3 per group). Plasma was collected mid-afternoon and analyzed for circulating lipids and lipoproteins.
At the end of timepoint 1, LDLR−/− mice fed a HFD and treated with Nutlin-3A or vehicle were sacrificed (n=3, all groups), and the aortic arches were dissected for RT-PCR analysis of SASP factors and senescent cell markers. Values were normalized to GAPDH and expressed as fold-change versus age-matched, vehicle-treated LDLR−/− mice on a normal diet.
At the end of timepoint 2, LDLR−/− mice fed a HFD and treated with Nutlin-3A or vehicle (n=3 for all groups) were sacrificed, and aortic arches were dissected for RT-PCR analysis of SASP factors and senescent cell markers. Values were normalized to GAPDH and expressed as fold-change versus age-matched, vehicle-treated LDLR−/− mice on a normal diet.
At the end of timepoint 3, LDLR−/− mice fed a HFD and treated with Nutlin-3A or vehicle (n=3 for all groups) were sacrificed, and aortas were dissected and stained with Sudan IV to detect the presence of lipid. Body composition of the mice was analyzed by MRI, and circulating blood cells were counted by Hemavet™.

CC1(C)CCC(c2ccc(Cl)cc2)=C(CN2CCN(c3ccc(C(=O)NS(=O)(=O)c4ccc(N[C@H](CCN5CCOCC5)CSc5ccccc5)c(S(=O)(=O)C(F)(F)F)c4)cc3)CC2)C1 [ABT-263]
peripheral capillary oxygen saturation (SpO2) levels [1]: statistically significant increases

CN(C)CC[C@H](CSc1ccccc1)Nc1ccc(S(=O)(=O)NC(=O)c2ccc(N3CCN(Cc4ccccc4-c4ccc(Cl)cc4)CC3)cc2)cc1[N+](=O)[O-] [ABT-737]
efficacy against cancer cells in human patients [2]: effective against some types of cancer cells | sensitivity of primary cells from patients with B-cell malignancies [3]: sensitive

CC[C@H](C(=O)N1CCCC[C@H]1C(=O)O[C@H](CCc1ccc(OC)c(OC)c1)c1cccc(OCC(=O)NCC(CNC(=O)COc2cccc([C@@H](CCc3ccc(OC)c(OC)c3)OC(=O)[C@@H]3CCCCN3C(=O)[C@@H](CC)c3cc(OC)c(OC)c(OC)c3)c2)CN(C)C)c1)c1cc(OC)c(OC)c(OC)c1 [AP2018]
peripheral capillary oxygen saturation (SpO2) levels [1]: statistically significant increases

COc1ccc(C2=N[C@@H](c3ccc(Cl)cc3)[C@@H](c3ccc(Cl)cc3)N2C(=O)N2CCNC(=O)C2)c(OC(C)C)c1 [Nutlin-3A]
peripheral capillary oxygen saturation (SpO2) levels [1]: statistically significant increases | presence of senescent cells in the joint ([4]; 5.8 μg per operated knee intra-articular, 4 weeks post-surgery): cleared senescent cells from the joint | weight bearing test: weight placed on the operated limb versus the contralateral unoperated limb ([4]; 4 weeks post-surgery, effect = favoring the unoperated hind limb, FIG. 6A): abrogated this effect | histopathology of joint tissue: destruction of the proteoglycan layer ([4]; effect = proteoglycan layer destroyed by ACL surgery, FIGS. 6B-6D): completely abrogated this effect | expression of p16 in the tissue (mRNA, qRT-PCR) ([4]; operated joints, 5.8 μg per operated knee intra-articular q.o.d. for 2 weeks, 4 weeks post-surgery, FIG. 5A): reduced the expression back to below the level of the controls | expression of IL-6 in the tissue (mRNA, qRT-PCR) ([4]; operated joints, 5.8 μg per operated knee intra-articular q.o.d. for 2 weeks, 4 weeks post-surgery, FIG. 5B): reduced the expression back to below the level of the controls | expression of MMP13 in the tissue (mRNA, qRT-PCR) ([4]; operated joints, 5.8 μg per operated knee intra-articular q.o.d. for 2 weeks, 4 weeks post-surgery, FIG. 5C): reduced the expression back to below the level of the controls | expression of SASP factors and senescent cell markers MMP3, MMP13, PAI1, p21, IGFBP2, IL-1A, IL-1B in the aortic arch (RT-PCR) ([5]; 25 mg/kg intraperitoneally, timepoint 1 (week 4), after one treatment cycle): reduced expression of several SASP factors and senescent cell markers | expression of SASP factors and senescent cell markers in the aortic arch (RT-PCR) ([5]; 25 mg/kg intraperitoneally, timepoint 2 (week 8), multiple treatment cycles): reduced expression of most markers | reduction of the surface area covered by plaques in the descending aorta (Sudan IV) ([5]; 25 mg/kg intraperitoneally, timepoint 3 (week 12), FIG. 9): about 45% | body fat composition of mice fed the high fat diet (MRI) ([5]; timepoint 3 (week 12)): decreased | mass of mice fed the high fat diet ([5]; timepoint 3 (week 12)): decreased | lymphocyte counts versus vehicle treated mice ([5]; timepoint 3 (week 12), Hemavet): equivalent | platelet counts versus vehicle treated mice ([5]; timepoint 3 (week 12), Hemavet): equivalent

Nc1nc(O)c2ncn(COC(CO)CO)c2n1 [ganciclovir]
peripheral capillary oxygen saturation (SpO2) levels [1]: statistically significant increases

From US10745429B2, “Phospholidines that are Bcl family antagonists for use in clinical management of conditions caused or mediated by senescent cells and for treating cancer” (Unity Biotechnology, Inc., priority 2018, dated 2020)
